# Patent publication US20090123907A1 (priority 2004, published 2009)
# Columns and labels:
# platelets [1] = test: Platelet rich plasma supplemented with 2% lysine citrate, 25 days storage; assay type: cell-based; settings: room temperature
# Excerpt: […]. In this experiment plasma is centrifuged to create platelet rich plasma (PRP). […]. For the first fifteen days the platelet parameters remain essentially unchanged. During the next five day period (days 16-20) the platelet count drifts down slightly and LDH level increases slightly. During the last five days (days 21-25), the platelet count drops off rather precipitously and the LDH level rises rather steeply. Yet clotting time remains relatively constant.
# platelets [2] = test: Platelets in 2% lysine citrate and CPD, 15 days storage; assay type: cell-based; settings: PRP, CPD + 2% lysine citrate, room temperature
# Excerpt: The second experiment was similar to the first platelet experiment reported above with the primary difference that the primary anticoagulant was CPD (citrate-phosphate-dextrose). This anticoagulant contains approximately 0.4% citrate by weight but also contains dextrose as an energy source for the platelets (and also, unfortunately, for any bacteria that may be present). […] It was believed that the CPD might further stabilize the platelets by providing an energy source.
structure (smiles),measurement,setting,value
"NCCCC[C@H](N)C(=O)O.O=C(O)CC(O)(CC(=O)O)C(=O)O [Lysine Citrate, lysine citrate]",Clotting time,"platelets [1]; Day 1, PRP",30 s
same,Count (platelets),"platelets [1]; Day 1, PRP",3.80 × 10^5 per μl
same,LDH,"platelets [1]; Day 1, PRP",106 IU/L
same,Clotting time,"platelets [1]; Day 2, PRP",30 s
same,Count (platelets),"platelets [1]; Day 2, PRP",3.75 × 10^5 per μl
same,LDH,"platelets [1]; Day 2, PRP",108 IU/L
same,Clotting time,"platelets [1]; Day 3, PRP",30 s
same,Count (platelets),"platelets [1]; Day 3, PRP",3.76 × 10^5 per μl
same,LDH,"platelets [1]; Day 3, PRP",109 IU/L
same,Clotting time,"platelets [1]; Day 4, PRP",30 s
same,Count (platelets),"platelets [1]; Day 4, PRP",3.80 × 10^5 per μl
same,LDH,"platelets [1]; Day 4, PRP",108 IU/L
same,Clotting time,"platelets [1]; Day 5, PRP",31 s
same,Count (platelets),"platelets [1]; Day 5, PRP",3.76 × 10^5 per μl
same,LDH,"platelets [1]; Day 5, PRP",108 IU/L
same,Clotting time,"platelets [1]; Day 6, PRP",31 s
same,Count (platelets),"platelets [1]; Day 6, PRP",3.75 × 10^5 per μl
same,LDH,"platelets [1]; Day 6, PRP",106 IU/L
same,Clotting time,"platelets [1]; Day 7, PRP",32 s
same,Count (platelets),"platelets [1]; Day 7, PRP",3.76 × 10^5 per μl
same,LDH,"platelets [1]; Day 7, PRP",109 IU/L
same,Clotting time,"platelets [1]; Day 8, PRP",30 s
same,Count (platelets),"platelets [1]; Day 8, PRP",3.76 × 10^5 per μl
same,LDH,"platelets [1]; Day 8, PRP",109 IU/L
same,Clotting time,"platelets [1]; Day 9, PRP",31 s
same,Count (platelets),"platelets [1]; Day 9, PRP",3.80 × 10^5 per μl
same,LDH,"platelets [1]; Day 9, PRP",108 IU/L
same,Clotting time,"platelets [1]; Day 10, PRP",30 s
same,Count (platelets),"platelets [1]; Day 10, PRP",3.77 × 10^5 per μl
same,LDH,"platelets [1]; Day 10, PRP",109 IU/L
same,Clotting time,"platelets [1]; Day 11, PRP",29 s
same,Count (platelets),"platelets [1]; Day 11, PRP",3.77 × 10^5 per μl
same,LDH,"platelets [1]; Day 11, PRP",109 IU/L
same,Clotting time,"platelets [1]; Day 12, PRP",30 s
same,Count (platelets),"platelets [1]; Day 12, PRP",3.75 × 10^5 per μl
same,LDH,"platelets [1]; Day 12, PRP",108 IU/L
same,Clotting time,"platelets [1]; Day 13, PRP",30 s
same,Count (platelets),"platelets [1]; Day 13, PRP",3.81 × 10^5 per μl
same,LDH,"platelets [1]; Day 13, PRP",110 IU/L
same,Clotting time,"platelets [1]; Day 14, PRP",31 s
same,Count (platelets),"platelets [1]; Day 14, PRP",3.80 × 10^5 per μl
same,LDH,"platelets [1]; Day 14, PRP",110 IU/L
same,Clotting time,"platelets [1]; Day 15, PRP",30 s
same,Count (platelets),"platelets [1]; Day 15, PRP",3.76 × 10^5 per μl
same,LDH,"platelets [1]; Day 15, PRP",109 IU/L
same,Clotting time,"platelets [1]; Day 16, PRP",29 s
same,Count (platelets),"platelets [1]; Day 16, PRP",3.75 × 10^5 per μl
same,LDH,"platelets [1]; Day 16, PRP",109 IU/L
same,Clotting time,"platelets [1]; Day 17, PRP",30 s
same,Count (platelets),"platelets [1]; Day 17, PRP",3.74 × 10^5 per μl
same,LDH,"platelets [1]; Day 17, PRP",108 IU/L
same,Clotting time,"platelets [1]; Day 18, PRP",30 s
same,Count (platelets),"platelets [1]; Day 18, PRP",3.76 × 10^5 per μl
same,LDH,"platelets [1]; Day 18, PRP",110 IU/L
same,Clotting time,"platelets [1]; Day 19, PRP",31 s
same,Count (platelets),"platelets [1]; Day 19, PRP",3.74 × 10^5 per μl
same,LDH,"platelets [1]; Day 19, PRP",111 IU/L
same,Clotting time,"platelets [1]; Day 20, PRP",30 s
same,Count (platelets),"platelets [1]; Day 20, PRP",3.74 × 10^5 per μl
same,LDH,"platelets [1]; Day 20, PRP",111 IU/L
same,Clotting time,"platelets [1]; Day 21, PRP",30 s
same,Count (platelets),"platelets [1]; Day 21, PRP",3.56 × 10^5 per μl
same,LDH,"platelets [1]; Day 21, PRP",103 IU/L
same,Clotting time,"platelets [1]; Day 22, PRP",31 s
same,Count (platelets),"platelets [1]; Day 22, PRP",3.42 × 10^5 per μl
same,LDH,"platelets [1]; Day 22, PRP",105 IU/L
same,Clotting time,"platelets [1]; Day 23, PRP",26 s
same,Count (platelets),"platelets [1]; Day 23, PRP",3.28 × 10^5 per μl
same,LDH,"platelets [1]; Day 23, PRP",122 IU/L
same,Clotting time,"platelets [1]; Day 24, PRP",29 s
same,Count (platelets),"platelets [1]; Day 24, PRP",2.91 × 10^5 per μl
same,LDH,"platelets [1]; Day 24, PRP",159 IU/L
same,Clotting time,"platelets [1]; Day 25, PRP",26 s
same,Count (platelets),"platelets [1]; Day 25, PRP",2.24 × 10^5 per μl
same,LDH,"platelets [1]; Day 25, PRP",279 IU/L
same,Clotting time,platelets [2]; Day 1,29 s
same,Count (platelets),platelets [2]; Day 1,2.41 × 10^5 per μl
same,LDH,platelets [2]; Day 1,98 IU/L
same,Clotting time,platelets [2]; Day 2,30 s
same,Count (platelets),platelets [2]; Day 2,2.41 × 10^5 per μl
same,LDH,platelets [2]; Day 2,96 IU/L
same,Clotting time,platelets [2]; Day 3,30 s
same,Count (platelets),platelets [2]; Day 3,2.40 × 10^5 per μl
same,LDH,platelets [2]; Day 3,97 IU/L
same,Clotting time,platelets [2]; Day 4,31 s
same,Count (platelets),platelets [2]; Day 4,2.40 × 10^5 per μl
same,LDH,platelets [2]; Day 4,98 IU/L
same,Clotting time,platelets [2]; Day 5,32 s
same,Count (platelets),platelets [2]; Day 5,2.38 × 10^5 per μl
same,LDH,platelets [2]; Day 5,99 IU/L
same,Clotting time,platelets [2]; Day 6,30 s
same,Count (platelets),platelets [2]; Day 6,2.41 × 10^5 per μl
same,LDH,platelets [2]; Day 6,101 IU/L
same,Clotting time,platelets [2]; Day 7,28 s
same,Count (platelets),platelets [2]; Day 7,2.42 × 10^5 per μl
same,LDH,platelets [2]; Day 7,100 IU/L
same,Clotting time,platelets [2]; Day 8,28 s
same,Count (platelets),platelets [2]; Day 8,2.40 × 10^5 per μl
same,LDH,platelets [2]; Day 8,102 IU/L
same,Clotting time,platelets [2]; Day 9,31 s
same,Count (platelets),platelets [2]; Day 9,2.38 × 10^5 per μl
same,LDH,platelets [2]; Day 9,100 IU/L
same,Clotting time,platelets [2]; Day 10,30 s
same,Count (platelets),platelets [2]; Day 10,2.38 × 10^5 per μl
same,LDH,platelets [2]; Day 10,98 IU/L
same,Clotting time,platelets [2]; Day 11,29 s
same,Count (platelets),platelets [2]; Day 11,2.35 × 10^5 per μl
same,LDH,platelets [2]; Day 11,103 IU/L
same,Clotting time,platelets [2]; Day 12,30 s
same,Count (platelets),platelets [2]; Day 12,2.34 × 10^5 per μl
same,LDH,platelets [2]; Day 12,101 IU/L
same,Clotting time,platelets [2]; Day 13,30 s
same,Count (platelets),platelets [2]; Day 13,2.34 × 10^5 per μl
same,LDH,platelets [2]; Day 13,103 IU/L
same,Clotting time,platelets [2]; Day 14,31 s
same,Count (platelets),platelets [2]; Day 14,2.35 × 10^5 per μl
same,LDH,platelets [2]; Day 14,105 IU/L
same,Clotting time,platelets [2]; Day 15,26 s
same,Count (platelets),platelets [2]; Day 15,2.28 × 10^5 per μl
same,LDH,platelets [2]; Day 15,122 IU/L
